Results on one compound are retold here after patent US20060183794A1, “Drug composition containing nf-kb inhibitor” (priority 2002, published 2006).

Structures are written as SMILES.

One experiment concerns the target NF-κB (Homo sapiens, UniProt P19838+Q04206). In words: Gel shift assay of NF-κB/DNA binding in TNF-α-treated MCF-7 cells. The experiment is classed as cell-based. Set-up: endogenous in cells; host or cells: MCF-7 cells treated with TNF-α. The conditions noted are these: 30 min. As for the experimental part:
MCF-7 cells (endowed by Professor Adrian L. Harriswere, Oxford University) were plated in portions of 4 ml at 1×10^5 cells/ml in […] (2 dishes per condition). On the next day, the culture medium in the 60 mm dishes was adjusted to 2 ml, treated with DHMEQ prepared at 1, 3, and 10 μg/ml for 2 hours, and subsequently, with TNF-α at 20 ng/ml. The culture medium in 60 mm dishes was extracted with a sucker 30 min after TNF-α treatment, cells were washed twice with PBS− for external application, 1 ml of cold PBS− was added, the cells were scraped with a rubber policeman (twice), and transferred to a 15 ml centrifuge tube. Cells were collected from two 60 mm dishes into a 15 ml centrifuge tube, centrifuged at 1,000 rpm for 5 min, and the supernatant was removed. To this, 700 μl of cold PBS− was added. […] The following operations were performed in ice. […] Next, collected nuclei were suspended in 40 μl buffer C (20 mM HEPES-KOH: pH7.9 […] 25% glycerol, 420 mM NaCl, 1.5 mM MgCl2, 0.2 mM EDTA, 0.5 mM DTT, 0.2 mM PMSF) and allowed to stand for 20 min. […]
Next, a Nick column was installed in the stand and a waste-liquid bottle was placed under the column. […] The column, fraction 1, and fraction 2 were measured individually with a Geiger counter and the readings confirmed fraction 2>the column>fraction 1. […]
Background: A gel shift assay detects complexes by their altered migration in electrophoresis.

For experiment [1], the system named is K562 (myelocytic leukemia cell line). In words: MTT assay, proliferation of control cell line K562. The experiment is classed as cell-based. As for the experimental part: (§1) Cells from the ATL cell lines (MT-1 and TL-Om1) and a control cell line (K562) were plated in 96-well plates at 1×10^5 cells/well and DHM2EQ was added at the desired final concentrations (2, 5, and 10 μg/ml). Cells to which the solvent DMSO had been added in equal volume (0 μg/ml) were used as […] incubation for 72 hours, cell viability was judged by the MTT assay. Relative MTT values were obtained as the ratio of the MMT values of DHM2EQ-treated cells to those of DHM2EQ-untreated cells, i.e., (MTT values of DHM2EQ-treated cells/MTT values of DHM2EQ-untreated cells)×100(%).
DHM2EQ was added to the ATL cell lines (MT-1 and TL-Om1) and a control cell line (K562) at a final concentration of 10 μg/ml and the cells were incubated for 12, 24, 48, and 72 hours. The proliferation-inhibitory effect was examined by the MTT assay. Cells to which the solvent DMSO had been added in equal volume were used as controls. Relative MTT values were obtained in the same manner as the aforementioned (1).
Time-course analysis and concentration dependence analysis of the inhibitory effect of DHM2EQ on proliferation of Hodgkin's lymphoma cells were performed in the same manner as in Example 2. As Hodgkin's lymphoma cells, the Hodgkin's lymphoma cell lines KMH-2 and L-540 were used.
(In general: Formazan colour is commonly taken as a measure of viable cells.)

In experiment [2] the test system is multiple myeloma cell line 196TIB. In words: MTT assay, proliferation of multiple myeloma cell line 196TIB. The experiment is classed as cell-based. As for the experimental part: as §1
Concentration dependence analysis of the inhibitory effect of DHM2EQ on proliferation of multiple myeloma cells was performed in the same manner as in Example 2. As multiple myeloma cells, the multiple myeloma cell line 196TIB was used.

Experiment [3] concerns MM cells (MM1, MM2, and MM3) of multiple myeloma patients. The experiment in a line: MTT assay, MM cells from patients' bone marrow. The experiment is classed as cell-based, human. The conditions noted are these: 10 μg/ml, 48 hours. As for the experimental part:
Next, to investigate the inhibitory effect of DHMEQ on proliferation of cells of multiple myeloma (MM) patients, MM cells (MM1, MM2, and MM3) were isolated from patients' bone marrow, incubated for 48 hours at the DHMEQ concentration of 10 μg/ml, and the proliferation-inhibitory effect was examined by the MTT assay. Peripheral blood mononuclear cells (PBMC) isolated from normal peripheral blood were used as control cells. In the figure, the vertical axis indicates the relative values of the MTT values of treated cells versus untreated cells, i.e., (DHMEQ-treated/untreated)×100%.

Experiment [4] concerns human breast cancer cell line MCF-7. In words: In vitro proliferation of MCF-7 (trypan blue cell count). It counts as cell-based. As for the experimental part: The human breast cancer cell line MCF-7 (NF-κB non-constitutively activated tumor) was incubated in 24, 48, and 72 hours in the presence of 10 and 50 μg/ml DHMEQ, and the proliferation-suppressive effect was examined.
MCF-7 was plated in 6 well plates at 1×10^5/well. The next day, the culture media were changed into those (5 ml) containing DHMEQ at 10 and 50 μg/ml and into the control medium (5 ml) containing only DMSO, which is used for dissolution of DHMEQ, in equal amount to those containing each concentration of DHMEQ. The assay was performed in three wells per each group. Immediately after the change, cells were incubated for 24, 48, and 72 hours. Subsequently, the cells were scraped with trypsin+EDTA. The number of cells was counted with trypan blue and averages as well as standard deviations were calculated. Data for each group were obtained and plotted in comparison with the control cells treated with DMSO only.

Chain of NF-κB (Q04206 whole entry): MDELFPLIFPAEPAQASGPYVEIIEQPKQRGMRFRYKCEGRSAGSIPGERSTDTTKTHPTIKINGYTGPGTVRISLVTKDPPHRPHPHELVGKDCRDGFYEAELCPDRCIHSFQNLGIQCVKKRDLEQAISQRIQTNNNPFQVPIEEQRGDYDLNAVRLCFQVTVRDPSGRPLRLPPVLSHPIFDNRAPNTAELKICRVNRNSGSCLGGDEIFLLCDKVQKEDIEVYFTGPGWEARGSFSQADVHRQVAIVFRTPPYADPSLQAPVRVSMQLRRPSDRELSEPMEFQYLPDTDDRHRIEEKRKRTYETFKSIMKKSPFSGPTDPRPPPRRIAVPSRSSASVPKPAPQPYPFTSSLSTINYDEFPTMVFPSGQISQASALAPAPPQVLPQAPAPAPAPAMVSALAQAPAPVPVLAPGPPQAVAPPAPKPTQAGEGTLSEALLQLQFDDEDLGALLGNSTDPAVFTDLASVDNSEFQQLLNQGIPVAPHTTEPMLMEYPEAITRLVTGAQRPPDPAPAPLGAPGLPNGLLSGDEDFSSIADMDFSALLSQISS
Chain of NF-κB (P19838 1-433 limits assumed): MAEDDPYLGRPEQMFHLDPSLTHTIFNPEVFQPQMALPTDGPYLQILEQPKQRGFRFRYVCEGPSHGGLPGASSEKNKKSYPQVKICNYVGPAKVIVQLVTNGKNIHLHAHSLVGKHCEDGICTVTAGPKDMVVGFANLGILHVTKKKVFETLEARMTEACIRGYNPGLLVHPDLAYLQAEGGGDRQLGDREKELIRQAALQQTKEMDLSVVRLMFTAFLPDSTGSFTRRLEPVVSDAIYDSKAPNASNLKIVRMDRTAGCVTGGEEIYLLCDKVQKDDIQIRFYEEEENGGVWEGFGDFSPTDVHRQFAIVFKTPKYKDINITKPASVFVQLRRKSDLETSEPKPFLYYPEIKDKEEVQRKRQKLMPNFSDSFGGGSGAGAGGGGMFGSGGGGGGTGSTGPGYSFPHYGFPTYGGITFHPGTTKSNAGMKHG

On to `O=C(NC1=CC(=O)C2OC2C1O)c1ccccc1O` (stereo not shown) [DHMEQ, 5,6-epoxy-4-hydroxy-3-salicyloylamino-2-cyclohexenone], for which the “binding between NF-κB and DNA” value at NF-κB (DHMEQ 10 μg/ml, TNF-α 20 ng/ml) is “completely inhibited”; on NF-κB (DHMEQ 1, 3, 10 μg/ml for 2 hours, then TNF-α 20 ng/ml), “concentration-dependently inhibited”. Further, the “cell proliferation, time course (MTT)” value in experiment [1] (10 μg/ml, 12, 24, 48, 72 hours, listed as DHM2EQ) was “hardly inhibited even after time had elapsed”. Besides, the “cell proliferation, concentration dependence (MTT)” value in experiment [1] (2, 5, 10 μg/ml, 72 hours) is given as “hardly inhibited”. Besides, the “cell proliferation, concentration dependence” value in experiment [2] is recorded as “inhibited in proportion to the DHM2EQ concentrations added”. In experiment [3], the “proliferation of MM cells from patients (MTT)” value was “proliferation was suppressed”. Further, the “cells survived compared with the control” value in experiment [4] (10 μg/ml, 24 hours) is 39%; in experiment [4] (10 μg/ml, 48 hours) it was 25%; in experiment [4] (10 μg/ml, 72 hours), 17%; in experiment [4] (50 μ/ml, in and after 24 hours), “no cells were observed to survive”.
